Data reported in ChEMBL document CHEMBL4765241, “Identification and Preclinical Pharmacology of ((1 R,3 S)-1-Amino-3-(( S)-6-(2-methoxyphenethyl)-5,6,7,8-tetrahydronaphthalen-2-yl)cyclopentyl)methanol (BMS-986166): A Differentiated Sphingosine-1-phosphate Receptor 1 (S1P) Modulator Advanced into Clinical Trials” (J Med Chem, 2019).
Values belong to the compound of their own block, whether it stands above or below them. Calls of active or inactive are those of the source. The calls are words filed in the database; no cut-off is given here.

Assays:
[1] = test system: Mus musculus; experiment: Reduction in circulating lymphocytes in Balb/c mouse blood at 30 mg/kg, po measured at 24 hrs by hematology analyzer based analysis; type: functional; parameters: scale not given: the % may be the effect or the level left
[2] = Ratio of drug metabolism in Lewis rat blood assessed as phosphate ester metabolite to parent drug at 3 mg/kg, po measured at 24 hrs by LC-MS/MS analysis; type: ADME, organism-based; details: in vivo
[3] = Drug metabolism in Balb/c mouse blood assessed as concentration of parent compound at 0.5 mg/kg, po measured at 24 hrs by LC-MS/MS analysis; type: ADME, organism-based; details: read-out: Ct
[4] = Drug metabolism in Balb/c mouse blood assessed as concentration of phosphate ester metabolite formation at 30 mg/kg, po measured at 24 hrs by LC-MS/MS analysis; type: ADME, organism-based; details: in vivo
[5] = Drug metabolism in Balb/c mouse blood assessed as concentration of parent compound at 30 mg/kg, po measured at 4 hrs by LC-MS/MS analysis; type: ADME, organism-based; details: Balb/c, blood, read-out: Ct
[6] = Ratio of drug metabolism in Balb/c mouse blood assessed as phosphate ester metabolite to parent drug at 30 mg/kg, po measured at 24 hrs by LC-MS/MS analysis; type: ADME, organism-based; details: in vivo
[7] = Terminal half-life in cynomolgus monkey at 1 mg/kg, iv; type: ADME, organism-based, Macaca fascicularis; details: in vivo, read-out: beta t1/2 (converted)
[8] = Drug metabolism in Lewis rat blood assessed as concentration of parent compound at 3 mg/kg, po measured at 4 hrs by LC-MS/MS analysis; type: ADME, organism-based; details: read-out: Ct
[9] = test system: Rattus norvegicus; experiment: Reduction in circulating lymphocytes in Lewis rat blood at 3 mg/kg, po measured at 24 hrs by hematology analyzer based analysis; type: functional; parameters: scale not given: the % may be the effect or the level left
[10] = test system: Mus musculus; experiment: Reduction in circulating lymphocytes in Balb/c mouse blood at 30 mg/kg, po measured at 4 hrs by hematology analyzer based analysis; type: functional; parameters: scale not given: the % may be the effect or the level left
[11] = AUC ratio in orally dosed Beagle dog blood assessed as phosphate metabolite to parent compound; type: ADME, organism-based, Canis lupus familiaris; details: in vivo, po
[12] = test system: Mus musculus; experiment: Reduction in circulating lymphocytes in Balb/c mouse blood at 0.5 mg/kg, po measured at 24 hrs by hematology analyzer based analysis; type: functional; parameters: scale not given: the % may be the effect or the level left
[13] = Drug metabolism in Balb/c mouse blood assessed as phosphate ester metabolite formation at 30 mg/kg, po measured at 4 hrs by LC-MS/MS analysis; type: ADME, organism-based; details: in vivo
[14] = test system: Rattus norvegicus; experiment: Drug metabolism in Lewis rat blood assessed as concentration of phosphate ester metabolite formation at 3 mg/kg, po measured at 4 hrs by LC-MS/MS analysis; details: in vivo
[15] = test system: Mus musculus; experiment: Reduction in circulating lymphocytes in Balb/c mouse blood at 0.5 mg/kg, po measured at 4 hrs by hematology analyzer based analysis; type: functional; parameters: scale not given: the % may be the effect or the level left
[16] = Terminal half-life in Sprague-Dawley rat at 1 mg/kg, iv; type: ADME, organism-based; details: in vivo, read-out: beta t1/2 (converted)
[17] = Half-life in Lewis rat at 3 mg/kg, po measured over 72 hrs by LC-MS/MS analysis; type: ADME, organism-based; details: in vivo
[18] = Drug metabolism in Balb/c mouse blood assessed as concentration of phosphate ester metabolite formation at 0.5 mg/kg, po measured at 24 hrs by LC-MS/MS analysis; type: ADME, organism-based; details: in vivo
[19] = test system: Rattus norvegicus; experiment: Reduction in circulating lymphocytes in Lewis rat blood at 3 mg/kg, po measured at 4 hrs by hematology analyzer based analysis; type: functional; parameters: scale not given: the % may be the effect or the level left
[20] = Ratio of drug metabolism in Balb/c mouse blood assessed as phosphate ester metabolite to parent drug at 0.5 mg/kg, po measured at 24 hrs by LC-MS/MS analysis; type: ADME, organism-based; details: in vivo
[21] = Drug metabolism in Balb/c mouse blood assessed as concentration of phosphate ester metabolite at 0.5 mg/kg, po measured at 4 hrs by LC-MS/MS analysis; type: ADME, organism-based; details: in vivo, BLD = below limit of detection
[22] = Drug metabolism in Balb/c mouse blood assessed as concentration of parent compound at 30 mg/kg, po measured at 24 hrs by LC-MS/MS analysis; type: ADME, organism-based; details: Balb/c, blood, read-out: Ct
[23] = AUC ratio in orally dosed Sprague-Dawley rat blood assessed as phosphate metabolite to parent compound; type: ADME, organism-based; details: in vivo, po
[24] = Drug metabolism in Balb/c mouse blood assessed as concentration of parent compound at 0.5 mg/kg, po measured at 4 hrs by LC-MS/MS analysis; type: ADME, organism-based; details: in vivo, BLD = below limit of detection
[25] = Terminal half-life in beagle dog at 1 mg/kg, iv; type: ADME, organism-based, Canis lupus familiaris; details: in vivo, read-out: beta t1/2 (converted)
[26] = Drug metabolism in Lewis rat blood assessed as concentration of parent compound at 3 mg/kg, po measured at 24 hrs by LC-MS/MS analysis
[27] = AUC ratio in orally dosed cynomolgus monkey blood assessed as phosphate metabolite to parent compound; type: ADME, organism-based, Macaca fascicularis; details: in vivo, po
[28] = test system: Mus musculus; experiment: Immunosuppressive activity in MOG (35 to 55 residues)/pertussis toxin-induced experimental autoimmune encephalomyelitis C57BL/6 mouse model assessed as reduction in formation of inflammatory lesions in CNS at 1 mg/kg, po QD starting from day 1 post immunization and measured thrice weekly until day 24; type: functional, organism-based
[29] = Pulmonary toxicity in Lewis rat assessed as elevation of BAL protein level at 3 mg/kg by advia1800 chemistry analyzer; type: organism-based; details: in vivo
[30] = AUC ratio in orally dosed human blood assessed as phosphate metabolite to parent compound; type: ADME, organism-based; details: po
[31] = test system: Rattus norvegicus; experiment: Reduction in circulating lymphocytes in Lewis rat blood assessed as effective dose after oral dosing measured at 24 hrs by hematology analyzer based analysis; type: functional
[32] = Cardiotoxicity in human iPSC derived cardiomyocytes assessed as reduction in beating rate at 1 nM measured over 2 hrs by multi-electrode array relative to control; type: toxicity, cell-based; parameters: scale not given: the % may be the effect or the level left; details: stem cell-derived cardiomyocyte, 0.001 µM
[33] = test system: Cerebellar cortex; experiment: Induction of remyelination in lysophosphatidylcholine-induced demyelination in wild-type CD1 mouse organotypic cerebellar slice assessed as myelination index at 0.01 to 10 nM incubated for 7 days by immunohistochemistry based three-dimensional brain cell culture assay (reference value: 50%); type: functional; details: dose 0.01-10 nM, time 7 day
[34] = test system: Cerebellar cortex; experiment: Induction of remyelination in lysophosphatidylcholine-induced demyelination in wild-type CD1 mouse organotypic cerebellar slice at 0.01 to 10 nM incubated for 7 days by immunohistochemistry based three-dimensional brain cell culture assay; type: functional, tissue-based; details: dose 0.01-10 nM, time 7.0 day
[35] = Cardiotoxicity in human iPSC derived cardiomyocytes assessed as reduction in beating rate at 10 nM measured over 2 hrs by multi-electrode array relative to control; type: toxicity, cell-based; parameters: scale not given: the % may be the effect or the level left; details: stem cell-derived cardiomyocyte, 0.01 µM
[36] = target: T1, Sphingosine 1-phosphate receptor 4 (Homo sapiens, UniProt O95977); experiment: Agonist activity at human recombinant S1P4 expressed in CHO cell membranes assessed as stimulation of [35S]-GTPgammaS binding measured after 45 mins by liquid scintillation counting assay; type: functional, Cell membrane
T1 sequence (O95977 whole entry): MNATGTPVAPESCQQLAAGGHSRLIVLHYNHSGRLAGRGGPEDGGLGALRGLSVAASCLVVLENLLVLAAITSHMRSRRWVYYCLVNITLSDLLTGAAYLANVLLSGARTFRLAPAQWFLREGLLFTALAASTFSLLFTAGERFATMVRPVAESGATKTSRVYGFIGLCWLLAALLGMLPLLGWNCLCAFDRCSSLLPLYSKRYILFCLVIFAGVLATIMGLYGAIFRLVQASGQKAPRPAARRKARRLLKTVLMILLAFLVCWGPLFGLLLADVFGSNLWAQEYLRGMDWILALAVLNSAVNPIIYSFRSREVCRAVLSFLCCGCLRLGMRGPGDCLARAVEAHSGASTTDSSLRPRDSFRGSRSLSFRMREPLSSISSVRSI

- Ratio [2]: 1.6
- concentration at 24 h [3]: 19 nM
- Drug metabolism [4]: 620 nM
- concentration at 4 h [5]: 1000 nM
- Ratio [6]: 0.5
- half-life [7]: 131 h
- concentration at 4 h [8]: 130 nM
- Ratio AUC [11]: 2.4
- Drug metabolism [13]: 150 nM
- Drug metabolism [14]: 90 nM
- half-life [16]: 131 h
- half-life [17]: > 75 h
- Drug metabolism [18]: 20 nM
- Ratio [20]: 1
- Drug metabolism [21]: Bld
- concentration at 24 h [22]: 1200 nM
- Ratio AUC [23]: 2.5
- Ct [24]: Bld
- half-life [25]: 131 h
- Ratio AUC [27]: 0.3
SMILES: CCCCCC[C@@H]1CCc2cc([C@H]3CC[C@](N)(CO)C3)ccc2C1 [BMS-986104]
- Activity [1]: 90%
- Activity [9]: 82%
- Activity [10]: 88%
- Activity [12]: 73%
- Activity [15]: 17%
- Activity [19]: 48%
- Ct [26]: 160 nM

SMILES: CCCCCCCCc1ccc(CCC(N)(CO)CO)cc1 [FINGOLIMOD]
- Activity [28]: Active
- Ratio AUC [11]: 3.7
- Activity [29]: 12.5 mg/dL
- Ratio AUC [30]: 0.42
- ED50 [31]: 0.1 mg/kg
- Ratio AUC [23]: 5.6
- Ratio AUC [27]: 5.9

- EC50 [36]: 1.6 nM
SMILES: CCCCCCCCc1ccc(CC[C@](N)(CO)COP(=O)(O)O)cc1 [FTY720-P]
- Activity [32]: 38%
- Activity [33]: 100%
- Activity [34]: Active
- Activity [35]: 62%
